Results taken from patent US12465614B2, “Budesonide 21-phosphate salts and pharmaceutical compositions containing the same” (GENETIC S.P.A., priority 2020, dated 2025).

Columns and labels:
[1] = test system: IgE; experiment: Plasma IgE levels in OVA-sensitized mice, ELISA (Experimental Groups I); type: in vivo; conditions: 1 mg/Kg i.p.; vs OVA group; FIG. 10 panel C
Procedure: Female Balb/c (8-week-old, Charles River, Calco, Italy) were housed in the animal care facility of the Department of Pharmacy of the University of Naples, Italy in a controlled environment (temperature 21±2° C. and humidity 60±10%) and provided with standard rodent chow and water. All animals were allowed to acclimate for four days prior to experiments and were subjected to 12 h light−12 h dark schedule. Experiments were conducted during the light phase. The experimental procedures were approved by the Italian Ministry according to International and National law and policies (EU Directive 2010/63/EU and Italian DL 26/2014 for animal experiments). […] The compounds were dissolved in DMSO (Sigma Chemical Co., St. Louis, MO) at concentrations at which the determined dose per animal results from the intraperitoneal administration of 100 μl of solution (1:10 DMSO) and intra-nasal (i.n.) administration of 10 μl/animal (5 μl/nostril) of the solutions. […] Plasma levels of IgE were measured as index of sensitization. […] Total IgE levels were measured by means of ELISA using matched antibody pairs (BD Biosciences Pharmingen San Jose, CA).

[2] = test system: mice with OVA-induced allergic asthma; experiment: BAL fluid cell counts, Bud vs Bud-21 P (Experimental Groups III); type: in vivo
Procedure: Male Balb/c SPF mice (25*2 g, 6-week-old) were purchased from the animal house facilities at the São Paulo School of Medicine (Federal University of São Paulo, Brazil). They were group-housed in a temperature-controlled room at 22° C. with a 12/12-hour light/dark cycle and allowed free access to food and water. The study is in agreement with the Ethical Principles for Animal Research established by the Brazilian College for Animal Experimentation (COBEA). According to the internal laboratory rules, euthanasia is performed if severe distress related to the test agents developed during the experiment.
In Protocol 3, the test compounds budesonide (Bud; MW: 430.53 g/mol) and budesonide 21-phosphate free acid (Bud-21 P; MW: 510.51 g/mol) were administered at equimolar doses of 3, 10 and 30 nmol/animal/day, equivalent to 1.3, 4.3 and 12.9 μg/animal/day of Bud, 1.5, 5.1 and 15.3 μg/animal/day of Bud-21 P, respectively. […]
After Penh evaluation, the mice were anesthetized with inhaled isofluorane (5% v/v in O2) and blood samples were collected from the descending abdominal aorta. […] Total cell counts were determined using a Neubauer chamber, and differential counting was carried out in cytospin (Fanem Mod 2400; São Paulo, Brazil) preparations stained with May-Grünwald dye. […]

SMILES | OVA induced increase of IgE plasma levels [1] | total BAL leukocytes compared with Sham ([2]; 3 nmol/animal/day i.n.) | BAL macrophages compared with Sham ([2]; 3 or 10 nmol/animal/day i.n.)
CCCC1OC2CC3C4CCC5=CC(=O)C=CC5(C)C4C(O)CC3(C)C2(C(=O)COP(=O)(O)O)O1 (stereo not drawn) [B, Budesonide 21-phosphate] | significantly reduced OVA induced increase of IgE plasma levels | – | –
CCCC1OC2CC3C4CCC5=CC(=O)C=CC5(C)C4C(O)CC3(C)C2(C(=O)CO)O1 (stereo not drawn) [Bud, 11β,21-dihydroxy-16α,17α-(butylidenebis(oxy))pregna-1,4-diene-3.20-dione] | – | still significantly higher than that observed in the Sham mice | still significantly higher than those observed in the Sham group
